Data as given in patent publication US10253039B2, “Inhibitors of bacterial DNA gyrase with efficacy against gram-negative bacteria” (priority 2014, dated 2019).
≈ marks a conversion by molar mass, not a printed value. Read-outs that look alike come from different tables or passages of the source.

Legend:
[1] = test system: E. coli BW25113 ΔtolC cipR isolate GyrA Ser83Leu; assay: MIC against ciprofloxacin-resistant mutant; conditions: Escherichia coli, BW25113
Method: (§2) A microdilution method in 96-well plates was used and the MIC protocol established by the Clinical Laboratory Standards Institute was followed. From a growing subculture, a 1:10000 inoculum of each strain in Luria-Bertani media was prepared and aliquoted 100 μL in 4 columns of wells, except for the top row wells, which contained 200 μL of inoculum. […] The liquid in each of wells was mixed with a multi-channel pipet and 100 μL was transferred to the next well and mixed. The 2-fold dilution was continued down the 96-well plate until 100 μL was left, which was discarded. The plates were incubated at 37° C. with shaking for 16-18 hours. The MIC was determined as the lowest concentration that inhibited growth and had no turbidity by visual inspection.

Morganella morganii = assay: MIC, microdilution in 96-well plates
[2] = test system: E. coli BW25113 ΔtolC cipR isolate GyrA Asp87Tyr; assay: MIC against ciprofloxacin-resistant mutant; conditions: Escherichia coli, BW25113
Method: as §2

Staphylococcus aureus = assay: MIC, microdilution in 96-well plates
[3] = test system: E. coli BW25113 ΔtolC gyrR isolate GyrA Phe96Leu; assay: MIC against gyramide-resistant mutant; conditions: Escherichia coli, BW25113
Method: as §2

E. coli BW25113 ΔtolC = assay: MIC, microdilution in 96-well plates; conditions: Escherichia coli
[4] = test system: E. coli BW25113 ΔtolC gyrR isolate GyrA Pro35Thr; assay: MIC against gyramide-resistant mutant; conditions: Escherichia coli, BW25113
Method: as §2

[5] = test system: ciprofloxacin resistant strains of E. coli; assay: MIC against ciprofloxacin resistant strains compared to parent strain; conditions: ratio to MIC of parent strain E. coli BW25113 ΔtolC
Method: as §2

Shigella flexneri = assay: MIC, 20-strain panel; assay type: cell-based; conditions: Table 7, separate set of experiments
Procedure, shortened: (§1)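 Broth microdilution per CLSI, 2-fold serial dilutions in Luria-Bertani medium with a 1:10000 inoculum from a growing subculture. Plates shaken at 37 °C for 16-18 h; MIC taken as lowest concentration showing no visible turbidity.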

[6] = test system: Staphylococcus epidermidis; assay: MIC, 20-strain panel; assay type: cell-based; conditions: Table 7, separate set of experiments, read-out: MIC
Procedure, shortened: as §1

Enterococcus faecium = assay: MIC, 20-strain panel; assay type: cell-based; conditions: Table 7, separate set of experiments, read-out: MIC
Procedure, shortened: as §1

[7] = test system: Salmonella enterica subsp. enterica typhimurium; assay: MIC, 20-strain panel; assay type: cell-based; conditions: Salmonella enterica subsp. enterica typhimurium, Table 7, separate set of experiments
Procedure, shortened: as §1

Bacillus subtilis 168 = assay: MIC, 20-strain panel; assay type: cell-based; conditions: Table 7, separate set of experiments, read-out: MIC
Procedure, shortened: as §1

Streptococcus pyogenes = assay: MIC, 20-strain panel; assay type: cell-based; conditions: Table 7, separate set of experiments, read-out: MIC
Procedure, shortened: as §1

[8] = test system: Klebsiella pneumoniae subsp. pneumoniae; assay: MIC, 20-strain panel; assay type: cell-based; conditions: Klebsiella pneumoniae subsp. pneumoniae, Table 7, separate set of experiments, read-out: MIC
Procedure, shortened: as §1

Bacillus cereus = assay: MIC, 20-strain panel; assay type: cell-based; conditions: Table 7, separate set of experiments, read-out: MIC
Procedure, shortened: as §1

Enterococcus faecalis = assay: MIC, 20-strain panel; assay type: cell-based; conditions: Table 7, separate set of experiments
Procedure, shortened: as §1

E. coli JW5503 (deltolC) = assay: MIC, 20-strain panel; assay type: cell-based; conditions: Escherichia coli, E. coli JW5503 (deltolC); Table 7, separate set of experiments
Procedure, shortened: as §1

Streptococcus agalactiae = assay: MIC, 20-strain panel; assay type: cell-based; conditions: Table 7, separate set of experiments, read-out: MIC
Procedure, shortened: as §1

[9] = test system: Morganella morganii subsp. morganii; assay: MIC, 20-strain panel; assay type: cell-based; conditions: Morganella morganii subsp. morganii; Table 7, separate set of experiments; read-out: MIC
Procedure, shortened: as §1

[10] = test system: Staphylococcus saprophyticus subsp. saprophyticus; assay: MIC, 20-strain panel; assay type: cell-based; conditions: Staphylococcus saprophyticus subsp. saprophyticus, Table 7, separate set of experiments, read-out: MIC
Procedure, shortened: as §1

[11] = test system: Staphylococcus aureus subsp. aureus; assay: MIC, 20-strain panel; assay type: cell-based; conditions: Staphylococcus aureus subsp. aureus, Table 7, separate set of experiments, read-out: MIC
Procedure, shortened: as §1

E. coli MG1655 = assay: MIC, 20-strain panel; assay type: cell-based; conditions: Escherichia coli, MG1655, E. coli MG1655; Table 7, separate set of experiments; read-out: MIC
Procedure, shortened: as §1

[12] = test system: E. coli BW25113 ΔtolC gyrR isolate GyrB Thr508Met; assay: MIC against gyramide-resistant mutant; conditions: Escherichia coli, BW25113
Method: as §2

Shigella boydii = assay: MIC, microdilution in 96-well plates
Vibrio cholera = assay: MIC, microdilution in 96-well plates; conditions: Vibrio cholerae
[13] = test system: E. coli BW25113 ΔtolC gyrR isolate GyrA Ser97Pro; assay: MIC against gyramide-resistant mutant; conditions: Escherichia coli, BW25113
Method: as §2

E. coli DNA gyrase = E. coli DNA gyrase (Escherichia coli, UniProt P0AES4+P0AES6); assay: DNA gyrase gel shift assay; conditions: IC50 against E. coli DNA gyrase, WT Gyrase
[14] = molecular target: T1, GyrBAfus:20-20 bp DNA complex (Staphylococcus aureus, UniProt P0A0K8+P20831); assay: 1H NMR binding study, titration; conditions: titrating 1:1 GyrBAfus:20-20 bp DNA into 50 μM compound
T1 construct: The C-terminal end of the B subunit was connected to the N-terminal end of the A subunit

[15] = test system: mutant E. coli (with a drug pump knock out); assay: Killing of mutant E. coli; assay type: cell-based, Escherichia coli

Sequence of E. coli DNA gyrase (P0AES4 whole entry, one chain of several): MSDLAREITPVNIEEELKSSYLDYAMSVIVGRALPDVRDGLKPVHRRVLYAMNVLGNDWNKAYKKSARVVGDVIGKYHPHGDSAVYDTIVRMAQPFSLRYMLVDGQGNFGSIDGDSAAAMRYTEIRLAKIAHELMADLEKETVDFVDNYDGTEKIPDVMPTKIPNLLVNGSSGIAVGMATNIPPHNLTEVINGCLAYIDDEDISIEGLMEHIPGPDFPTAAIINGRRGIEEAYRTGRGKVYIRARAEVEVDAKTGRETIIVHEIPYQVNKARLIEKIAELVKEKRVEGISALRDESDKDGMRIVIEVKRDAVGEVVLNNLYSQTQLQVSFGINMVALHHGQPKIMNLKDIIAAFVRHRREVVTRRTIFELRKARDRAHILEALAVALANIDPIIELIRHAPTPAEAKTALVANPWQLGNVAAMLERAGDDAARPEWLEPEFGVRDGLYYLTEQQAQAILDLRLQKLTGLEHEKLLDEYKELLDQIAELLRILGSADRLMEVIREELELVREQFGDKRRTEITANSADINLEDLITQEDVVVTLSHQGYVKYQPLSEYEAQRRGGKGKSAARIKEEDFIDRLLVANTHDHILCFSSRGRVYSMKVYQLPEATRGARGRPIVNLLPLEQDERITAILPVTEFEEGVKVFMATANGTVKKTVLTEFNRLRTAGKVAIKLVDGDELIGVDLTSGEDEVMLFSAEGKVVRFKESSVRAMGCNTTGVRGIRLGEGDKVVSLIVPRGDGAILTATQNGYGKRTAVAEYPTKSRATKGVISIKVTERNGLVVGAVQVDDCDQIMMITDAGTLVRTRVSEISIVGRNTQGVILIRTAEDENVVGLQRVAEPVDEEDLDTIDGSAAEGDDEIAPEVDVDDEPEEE
T1 sequence (P0A0K8 410-543): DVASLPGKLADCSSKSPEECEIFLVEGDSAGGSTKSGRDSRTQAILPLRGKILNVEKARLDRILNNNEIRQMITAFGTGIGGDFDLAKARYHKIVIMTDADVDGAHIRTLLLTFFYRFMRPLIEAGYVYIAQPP
T1 sequence (P0A0K8 580-644): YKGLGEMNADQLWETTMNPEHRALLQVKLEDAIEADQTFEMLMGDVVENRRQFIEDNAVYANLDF
T1 sequence (P20831 2-491): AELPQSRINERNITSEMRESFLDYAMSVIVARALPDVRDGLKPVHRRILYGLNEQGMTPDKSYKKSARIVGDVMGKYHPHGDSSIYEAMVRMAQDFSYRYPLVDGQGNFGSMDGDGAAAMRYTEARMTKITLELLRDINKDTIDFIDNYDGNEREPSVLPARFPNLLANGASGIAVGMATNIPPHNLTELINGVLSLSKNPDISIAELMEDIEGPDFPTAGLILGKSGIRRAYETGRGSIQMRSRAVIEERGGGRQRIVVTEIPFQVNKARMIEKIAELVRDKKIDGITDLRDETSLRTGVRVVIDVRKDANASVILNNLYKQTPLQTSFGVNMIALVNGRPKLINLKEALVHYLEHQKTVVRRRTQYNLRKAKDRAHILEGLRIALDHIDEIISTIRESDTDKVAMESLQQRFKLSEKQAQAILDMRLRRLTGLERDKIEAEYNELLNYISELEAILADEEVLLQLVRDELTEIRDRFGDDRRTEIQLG

N#Cc1cccc(S(=O)(=O)N[C@@H]2CCN(Cc3ccc(-c4ccccc4)cc3)C2)c1 [Gyramide C2, gyramide C2]
MIC [1]: 0.4 µM (≈ 0.167 µg/mL)
MIC (Morganella morganii): > 640 µM
MIC (Morganella morganii; without PAβN): >640 µM
MIC [2]: 0.8 µM (≈ 0.334 µg/mL)
MIC (Staphylococcus aureus; with PAβN (60 μM)): 40 µM (≈ 16.7 µg/mL)
MIC (Staphylococcus aureus; without PAβN): 160 µM (≈ 66.8 µg/mL)
MIC [3]: 25.6 µM (≈ 10.7 µg/mL)
MIC (E. coli BW25113 ΔtolC; BW25113, E. coli BW25113 ΔtolC (parent strain), Table 4): 0.1 µM (≈ 0.0418 µg/mL)
MIC (E. coli BW25113 ΔtolC; BW25113, E. coli BW25113 ΔtolC (parent strain), Table 5): 0.1 µM (≈ 0.0418 µg/mL)
MIC (E. coli BW25113 ΔtolC; BW25113, E. coli BW25113 ΔtolC, without PAβN, Table 3): 0.25 µM (≈ 0.104 µg/mL)
MIC [4]: 25.6 µM (≈ 10.7 µg/mL)
MIC against ciprofloxacin resistant strains compared to the parent strain [5]: 4-8 times
MIC (Shigella flexneri): 8 µg/mL (≈ 19.2 µM)
MIC [6]: > 16 µg/mL
MIC (Enterococcus faecium): > 16 µg/mL
MIC [7]: 2 µg/mL (≈ 4.79 µM)
MIC (Bacillus subtilis 168): > 16 µg/mL
MIC (Streptococcus pyogenes): > 16 µg/mL
MIC [8]: > 16 µg/mL
MIC (Bacillus cereus): > 16 µg/mL
MIC (Enterococcus faecalis): > 16 µg/mL
MIC (E. coli JW5503 (deltolC)): 0.015 µg/mL (≈ 0.0359 µM)
MIC (Streptococcus agalactiae): > 16 µg/mL
MIC [9]: > 16 µg/mL
MIC [10]: > 16 µg/mL
MIC [11]: > 16 µg/mL
MIC (E. coli MG1655): 16 µg/mL (≈ 38.3 µM)
MIC [12]: 25.6 µM (≈ 10.7 µg/mL)
MIC (Shigella boydii; with PAβN (60 μM)): 1.25 µM (≈ 0.522 µg/mL)
MIC (Shigella boydii; without PAβN): 80 µM (≈ 33.4 µg/mL)
MIC (Vibrio cholera; with PAβN (60 μM)): 40 µM (≈ 16.7 µg/mL)
MIC (Vibrio cholera; without PAβN): 160 µM (≈ 66.8 µg/mL)
MIC [13]: > 25.6 µM
IC50 (E. coli DNA gyrase; Average of 3 trials): 0.122 ± 0.0392 µM
IC50 (E. coli DNA gyrase; Trial 1): 0.0845 µM
IC50 (E. coli DNA gyrase; Trial 2): 0.119 µM
IC50 (E. coli DNA gyrase; Trial 3): 0.163 µM
Kd for the association [14]: < 50 µM
concentration observed to kill mutant E. coli [15]: 300 nM
